Test results: patent US20230201157A1, “COMPOSITIONS OF CANNABINOIDS AND METHODS OF USING SAME” (ASANA BIO GROUP LTD., priority 2020, published 2023)

What was measured:
RAW 264.7 cells [1] = assay: MTT viability assay; assay type: cell-based, mouse; conditions: for cell viability: 50 µM of single cannabinoid (FIG. 1)
Procedure: (§1) Cell lines were cultured according to standard mammalian tissue culture protocols and sterile technique. Adherent human epithelial endometriosis 12Z and mouse monocytes RAW 264.7 cell lines were cultured in high glucose Dulbecco’s Modified Eagle Medium (DMEM) supplemented with 1% sodium pyruvate. Human monocytes THP-1 cell line were cultured in RPMI medium 1640. All media was supplemented with 10% fetal bovine serum, streptomycin […], penicillin (100 U/ml) and Nystatin (12.5 U/ml). Cells were incubated in 5% CO2 at 37° C. All tissue culture cells were maintained in 75 cm^2 cell culture treated flask (Eppendorf) and all the media and supplements were obtained from Biological Industries. Treatment were performed by plating cells in a 96 micro well delta surface plates (Eppendorf) in a starting confluence of 1 × 10^4 cells/well.
The viability of the cells following treatment was determined using a commercially available MTT assay kit (Abcam, ab 146345) and performed according to manufacturer’s instructions. Briefly, cells were seeded in a 96-well plate at a density of 1 × 10^4 cells/well (n=4) in 100 µl cell specific media. After overnight plating, cells were exposed to varying concentrations of cannabis samples in 100 µl of specific media. Then, plates were incubated in a humidified atmosphere containing 5% CO2 in air at 37° C. for 24 hours. According to the MTT standard protocol, after 24 h treatment, the media was removed, and all cells were incubated with serum-free media containing 0.5 mg/ml MTT for 4 hours at the incubator. The MTT purple crystals formed by the viable cells were dissolved using isopropanol containing 0.04 mol/L HCl. The quantification was determined by measuring the optical density at 570 nm in a spectrophotometer reader (Spark, Tecan). Results were presented as proportional viability (%) by comparing between treated and untreated groups. Cytotoxic potential of an extract was determined according to the following criteria: Non-cytotoxic -Viability is ≥ 70% of vehicle control; Cytotoxic - Viability is reduced to less than 70% of vehicle control.

RAW 264.7 cells [2] = assay: Nitric oxide detection assay (Griess) in LPS-stimulated cells; assay type: cell-based, mouse; conditions: for nitric oxide production: 50 µM of single cannabinoid (FIG. 1); for nitric oxide production while minimally affecting cell viability: lower dose, 25 µM, compared with effect at 50 µM (FIG. 1)
Procedure: as §1
RAW 264.7 cells were seeded in a 96-well plate at a density of 1 × 10^4 cells/well (n=4) in 100 µl cell specific media (DMEM high glucose supplemented with 10% FBS, 1% PSN and 1% Sodium pyruvate). After 24 hours, cells were treated with varying concentrations of cannabis samples using specific media containing 5% FBS. After 1 hour, treated and untreated cells, were stimulated by Lipopolysaccharides (LPS) at a final concentration of 1 µg/ml. Cells supernatants were harvest after 24 h for nitric oxide radical (NO•) assay by addition of 50 µl of the supernatant to an equal volume of Griess reagent (1% sulfanilamide, 0.1% naphthalene diamine and 2% H3PO4). After 10 min of incubation, the resultant color was measured at 540 nm. Results were presented as proportional (%) by comparing between treated and untreated groups. Anti-inflammatory potential of an extract in preventing Nitric oxide production was determined by the ratio between nitric oxide and cell viability values: Ratio < 0.5 = High effect; Ratio between 0.5-0.7 = Moderate effect; Ratio […] = Low effect; and Ratio > 1 = No effect.

SMILES | cell viability (exception to 'no substantial effect on cell viability') (RAW 264.7 cells [1]; mouse, 24 h, 50 µM) | cell viability (RAW 264.7 cells [1]) | nitric oxide production (RAW 264.7 cells [2]) | nitric oxide production while minimally affecting cell viability (RAW 264.7 cells [2])
O=c1cc(-c2ccc(O)cc2)oc2cc(O)cc(O)c12 [Apigenin, apigenin] | excluding 50 µM of Apigenin | – | – | –
CCCCCc1cc(O)c2c(c1)OC(C)(CCC=C(C)C)C=C2 (stereo not drawn) [CBC, cannabichromene] | – | minimally affecting cell viability or not affecting cell viability at all | reduced nitric oxide production | –
CCCCCc1cc2c(c(O)c1C(=O)O)C=CC(C)(CCC=C(C)C)O2 (stereo not drawn) [CBCA, cannabichromenic acid] | – | minimally affecting cell viability or not affecting cell viability at all | reduced nitric oxide production | comparable effect
CCCCCc1cc(O)c(C/C=C(\C)CCC=C(C)C)c(O)c1 [CBG, cannabigerol] | – | – | reduced nitric oxide production | –
CCCCCc1cc(O)c2c(c1)OC(C)(C)c1ccc(C)cc1-2 [CBN, cannabinol] | – | minimally affecting cell viability or not affecting cell viability at all | reduced nitric oxide production | –
CCCCCc1cc2c(c(O)c1C(=O)O)-c1cc(C)ccc1C(C)(C)O2 [CBNA, cannabinolic acid] | – | minimally affecting cell viability or not affecting cell viability at all | reduced nitric oxide production | comparable effect
CCCCCc1cc2c(c(O)c1C(=O)O)[C@@H]1C=C(C)CC[C@H]1C(C)(C)O2 [THCA, tetrahydrocannabinolic acid] | – | minimally affecting cell viability or not affecting cell viability at all | reduced nitric oxide production | –
CCCc1cc(O)c2c(c1)OC(C)(C)[C@@H]1CCC(C)=C[C@@H]21 [THCV, tetrahydrocannabivarin] | – | minimally affecting cell viability or not affecting cell viability at all | reduced nitric oxide production | –
CCCc1cc2c(c(O)c1C(=O)O)[C@@H]1C=C(C)CC[C@H]1C(C)(C)O2 [THCVA, tetrahydrocannabivarinic acid] | – | minimally affecting cell viability or not affecting cell viability at all | reduced nitric oxide production | –
